Each structure is given as a SMILES string.

Our source for the EC50 values is patent publication US20090192153A1, “NOVEL ADENINE COMPOUND” (priority 2005, published 2009).

The target of the assay is T1, human TLR7 (Homo sapiens, UniProt Q9NYK1).
T1 construct: expressed in transfected cells; host or cells: HEK293 (hTLR7/seap-293), stably transfected
T1 sequence (Q9NYK1 27-1049): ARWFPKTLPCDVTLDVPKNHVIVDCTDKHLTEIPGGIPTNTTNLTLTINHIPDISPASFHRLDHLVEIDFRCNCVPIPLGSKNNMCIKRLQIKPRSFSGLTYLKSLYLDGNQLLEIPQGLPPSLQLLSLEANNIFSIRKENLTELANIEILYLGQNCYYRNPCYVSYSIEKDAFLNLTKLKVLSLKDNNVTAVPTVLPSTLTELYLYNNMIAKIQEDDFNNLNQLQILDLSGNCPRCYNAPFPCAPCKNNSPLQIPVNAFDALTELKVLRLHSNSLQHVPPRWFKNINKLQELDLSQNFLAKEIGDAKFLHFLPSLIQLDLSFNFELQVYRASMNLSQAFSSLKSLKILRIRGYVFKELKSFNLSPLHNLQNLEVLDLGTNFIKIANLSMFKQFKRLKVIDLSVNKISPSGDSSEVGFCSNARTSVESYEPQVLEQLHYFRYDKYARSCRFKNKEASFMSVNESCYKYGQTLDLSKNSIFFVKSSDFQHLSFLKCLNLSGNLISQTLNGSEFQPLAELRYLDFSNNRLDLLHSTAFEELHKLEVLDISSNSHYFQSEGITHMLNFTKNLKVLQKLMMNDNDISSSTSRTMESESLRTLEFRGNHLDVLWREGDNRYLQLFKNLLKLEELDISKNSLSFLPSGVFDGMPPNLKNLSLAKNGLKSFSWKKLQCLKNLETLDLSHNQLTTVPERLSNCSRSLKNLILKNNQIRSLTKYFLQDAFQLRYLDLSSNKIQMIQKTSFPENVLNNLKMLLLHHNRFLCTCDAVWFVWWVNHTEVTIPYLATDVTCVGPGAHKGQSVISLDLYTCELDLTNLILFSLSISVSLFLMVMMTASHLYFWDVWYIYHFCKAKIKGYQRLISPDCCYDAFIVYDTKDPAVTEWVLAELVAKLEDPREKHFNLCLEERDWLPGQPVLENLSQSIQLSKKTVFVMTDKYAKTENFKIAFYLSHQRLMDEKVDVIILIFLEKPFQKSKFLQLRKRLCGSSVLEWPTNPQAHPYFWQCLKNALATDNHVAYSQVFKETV
Nature of the assay: Human TLR7 reporter assay (NF-kB-SEAP in HEK293 cells). Format: cell-based. To be noted: HEK293 cells stably carrying human TLR7 plasmid and NF-kB-SEAP reporter plasmid; 20 hours culture; final concentration 1 nM-10 μM; absorbance 405 nm; read-out: Human TLR7 binding activity (EC50). The method, then: Human TLR7 Reporter Assay
HEK293 cells in which human TLR7 or rat TLR7 plasmid and reporter plasmid (NF-kB-SEAP) are stably introduced are dispersed in DMEM broth (10% FBS, 1% NEAA, 10 ug/mL blastocidin S HCl, 100 ug/mL Zeocin), and were seeded to 96 well plate per 90 μl/well (hTLR7/seap-293:20000 cells/well, rTLR7/seap-293:25000 cells/well).
Test compound (DMSO stock solution (2 μl) was diluted with the broth (200 μl) by 100 times) was added to the seeded cells to a 96 well plate (10 μl/well) (final concentration; 1 nM-10 μM, common ratio 3). After stirring by tapping side of the plate, the cells were cultured in a CO2 incubator for 20 hours. A substrate (50 μl/well) for reporter assay (substrate for SEAP, pNPP) was added to cells stimulated by test sample. Ten minutes after adding the substrate, the reaction quenching solution (4N NaOH) was added by 50 μl/well to cease enzymatic reaction. Sealing a top seal A on the plate, the absorbance was measured by a micro plate reader (405 nm).
(In general: A reporter such as luciferase makes a cellular process visible.)
For the compound `CCCCOc1nc(N)c2[nH]c(=O)n(CCN3CCN(CCC(=O)OC)CC3)c2n1` [Example 7, 2-Butoxy-7,8-dihydro-9-[2-{4-(2-methoxycarbonylethyl)piperazin-1-yl}ethyl]-8-oxoadenine], the EC50 came out at 4790 nM. For the compound `CCCCOc1nc(N)c2[nH]c(=O)n(CCCN3CCC(CC(=O)OC)CC3)c2n1` [Example 11, 2-Butoxy-7,8-dihydro-9-{3-[4-(2-methoxy-2-oxoethyl)piperidin-1-yl]propyl}-8-oxoadenine], the EC50 worked out at 3240 nM. Next, `CCCCOc1nc(N)c2[nH]c(=O)n(CCCCCCCN3CCC(C(=O)OC)CC3)c2n1` [Example 16]: 145 nM; `CCCCOc1nc(N)c2[nH]c(=O)n(CCCCN3CCCC(C(=O)OC)C3)c2n1` (stereo not drawn) [Example 19, 2-Butoxy-7,8-dihydro-9-[4-(3-methoxycarbonylpiperidin-1-yl)butyl]-8-oxoadenine]: 631 nM.

Take `CCCCOc1nc(N)c2[nH]c(=O)n(CCCCCCN3CCC(C(=O)OC)CC3)c2n1` [Example 15, 2-Butoxy-7,8-dihydro-9-[6-(4-methoxycarbonylpiperidin-1-yl)hexyl]-8-oxoadenine]: the EC50 is 95.2 nM. Next, `CCCCOc1nc(N)c2[nH]c(=O)n(CCCCCCCCN3CCC(C(=O)OC)CC3)c2n1` [Example 17, 2-Butoxy-7,8-dihydro-9-[8-(4-methoxycarbonylpiperidin-1-yl)octyl]-8-oxoadenine]: 148 nM. In the case of `CCCCOc1nc(N)c2[nH]c(=O)n(CCCN3CCC(C(=O)OC)CC3)c2n1` [Example 8, 2-Butoxy-7,8-dihydro-9-[3-(4-methoxycarbonylpiperidin-1-yl)propyl]-8-oxoadenine] it was 1230 nM; in that of `CCCCOc1nc(N)c2[nH]c(=O)n(CCCCCN3CCCC(CC(=O)OC)C3)c2n1` (stereo not drawn) [Example 3, 2-Butoxy-7,8-dihydro-9-[5-(3-methoxycarbonylmethylpiperidin-1-yl)pentyl]-8-oxoadenine], 571 nM; in that of `CCCCOc1nc(N)c2[nH]c(=O)n(CCN3CCCC(C(=O)OC)C3)c2n1` (stereo not drawn) [Example 5, 2-Butoxy-7,8-dihydro-9-[2-(3-methoxycarbonylpiperidin-1-yl)ethyl]-8-oxoadenine], 807 nM. Next, `CCCCOc1nc(N)c2[nH]c(=O)n(CCCCCN3CCC(C(=O)OC)CC3)c2n1` [Example 1, 2-Butoxy-7,8-dihydro-9-[5-(4-methoxycarbonylpiperidin-1-yl)pentyl]-8-oxoadenine]: 145 nM; `CCCCOc1nc(N)c2[nH]c(=O)n(CCCN3CCCC(CC(=O)OC)C3)c2n1` (stereo not drawn) [Example 12, 2-Butoxy-7,8-dihydro-9-{3-[3-(2-methoxy-2-oxoethyl)piperidin-1-yl]propyl}-8-oxoadenine]: 1610 nM. In the case of `CCCCOc1nc(N)c2[nH]c(=O)n(CCCN3CCCC(C(=O)OC)C3)c2n1` (stereo not drawn) [Example 9, 2-Butoxy-7,8-dihydro-9-[3-(3-methoxycarbonylpiperidin-1-yl)propyl]-8-oxoadenine], the EC50 is 989 nM.

One may read the EC50 as the concentration giving half of the maximal effect.
